Test results from patent US8865894B2, “Oxazolidin-2-one compounds and uses thereof” (Novartis AG, priority 2012, dated 2014).
Like-named read-outs stand apart in the source and are kept apart here.

What was measured:
human PI3Kα = target: T1, human PI3Kα (Homo sapiens, UniProt P42336); experiment: Biochemical PI3Kalpha (KinaseGlo luminescent kinase assay)
T1 construct: made in house
Protocol: (§1) Test compounds were dissolved in DMSO (10 mM) and transferred into 1.4 mL flat bottom or V-shaped Matrix tubes carrying a unique 2D matrix chip by individual Novartis compound hubs. The numbers of these chips were distinctively linked to Novartis Pharma Numbers. The stock solutions were stored at −20° C. if not used immediately. For the test procedure the vials were defrosted and identified by a scanner whereby a working sheet was generated that guided the subsequent working steps.
(§2) Compounds were either manually diluted in DMSO for individual experiments (96 wells enabling 10 cpds at 8 (single points) concentrations) as described in or prepared as described below if tested for profiling in 384-wells. This format enabled the assay of maximally 40 individual test compounds at 8 concentrations (single points) including 4 reference compounds. The dilution protocol included the production of “pre-dilution plates”, “master plates” and “assay plates”.
(§3) 96 polypropylene well plates were used as pre-dilution plates. A total of 4 pre-dilution plates were prepared including 10 test compounds each on the plate positions A1-A10, one standard compound at A11 and one DMSO control at A12. Programs have been written to run these pipetting steps on the HamiltonSTAR robots.
(§4) Identical “assay plates” were then prepared by pipetting 50 nL each of compound dilutions of the “master plates” into 384-well “assay plates”. The compounds were mixed with 4.5 μL of assays components plus 4.5 μL enzyme corresponding to a 1:181 dilution enabling the final concentration of 10, 3.0, 1.0, 0.3, 0.1, 0.03, 0.01 and 0.003 μM, respectively. The preparation of the “master plates” was handled by the Matrix PlateMate Plus robot and replication of “assay plates” by the HummingBird robot.
(§5) Catalytically active human PI3Kα, PI3Kβ, PI3Kδ, and mTOR were cloned, expressed and purified as described (Maira S M, Stauffer F, Brueggen J, Furet P, Schnell C, Fritsch C, Brachmann S, Chène P, de Pover A, Schoemaker K, Fabbro D, Gabriel D, Simonen M, Murphy L, Finan P, Sellers W, García-Echeverría C (2008), Mol Cancer Ther. 7:1851-63 and Maira S M, Pecchi S, Brueggen J, Huh K, Schnell C, Fritsch C, Nagel T, Wiesmann M, Brachmann S, Dorsch M, Chène P, Schoemaker K, De Pover A, Menezes D, Fabbro D, Sellers W, García-Echeverría C, Voliva C F (2011), Mol. Cancer Ther. accepted).
(§6) The luminescence-based ATP detection reagent KinaseGlo was obtained from Promega, (Cat. No. V6714, Lot No. 236161) through Catalys, Wallisellen, Switzerland. (L-alpha-phosphatidylinositol (PI), Liver, Bovine) were obtained from Avanti Polar Lipid (Cat. No. 840042C, Lot#LPI-274), Phosphatidylinositol-4,5-bisphosphate (PIP(4,5)2 (Avanti, Cat. No. 840046×) or L-α-phosphatidylinositol (PI) was obtained from Avanti Polar Lipid (Cat. No. 840042C, Lot#LPI-274). L-α-Phosphatidylserine (PS) was from Avanti Polar Lipid (Cat. No. 840032C), n-OctylGlucoside Avanti Polar Lipid (Cat. No. 10634425001). Luminescence is a well established readout to determine ATP concentrations and can thus be used to follow the activity of many kinases regardless of their substrate. The Kinase Glo Luminescent Kinase Assay (Promega, Madison/Wis., USA) is a homogeneous HTS method of measuring kinase activity by quantifying the amount of ATP remaining in solution following a kinase reaction.
(§7) 50 nL of compound dilutions were dispensed onto black 384-well low volume Non Binding Styrene (NBS) plates (Costar Cat. No. NBS#3676) as described in section 8.2. L-α-phosphatidylinositol (PI), provided as 10 mg/ml solution in methanol, was transferred into a glass tube and dried under nitrogen beam. It was then resuspended in 3% OctylGlucoside by vortexing and stored at 4° C. 5 μL of a mix of PI/OG with the PI3Ka and Pi3Kb subtypes were added. Kinase reactions were started by addition of 5 μl of ATP-mix containing in a final volume 10 μL 10 mM TRIS-HCl pH 7.5, 3 mM MgCl2, 50 mM NaCl, 0.05% CHAPS, 1 mM DTT and 1 μM ATP, and occurred at room temperature.

human PI3Kβ = target: T2, human PI3Kβ (Homo sapiens, UniProt P42338); experiment: Biochemical PI3Kbeta (KinaseGlo luminescent kinase assay); details: 1 μM ATP, mean of n measurements, read-out: PI3Kb/ IC50
T2 construct: made in house
T2 sequence (P42338 2-1070 limits assumed): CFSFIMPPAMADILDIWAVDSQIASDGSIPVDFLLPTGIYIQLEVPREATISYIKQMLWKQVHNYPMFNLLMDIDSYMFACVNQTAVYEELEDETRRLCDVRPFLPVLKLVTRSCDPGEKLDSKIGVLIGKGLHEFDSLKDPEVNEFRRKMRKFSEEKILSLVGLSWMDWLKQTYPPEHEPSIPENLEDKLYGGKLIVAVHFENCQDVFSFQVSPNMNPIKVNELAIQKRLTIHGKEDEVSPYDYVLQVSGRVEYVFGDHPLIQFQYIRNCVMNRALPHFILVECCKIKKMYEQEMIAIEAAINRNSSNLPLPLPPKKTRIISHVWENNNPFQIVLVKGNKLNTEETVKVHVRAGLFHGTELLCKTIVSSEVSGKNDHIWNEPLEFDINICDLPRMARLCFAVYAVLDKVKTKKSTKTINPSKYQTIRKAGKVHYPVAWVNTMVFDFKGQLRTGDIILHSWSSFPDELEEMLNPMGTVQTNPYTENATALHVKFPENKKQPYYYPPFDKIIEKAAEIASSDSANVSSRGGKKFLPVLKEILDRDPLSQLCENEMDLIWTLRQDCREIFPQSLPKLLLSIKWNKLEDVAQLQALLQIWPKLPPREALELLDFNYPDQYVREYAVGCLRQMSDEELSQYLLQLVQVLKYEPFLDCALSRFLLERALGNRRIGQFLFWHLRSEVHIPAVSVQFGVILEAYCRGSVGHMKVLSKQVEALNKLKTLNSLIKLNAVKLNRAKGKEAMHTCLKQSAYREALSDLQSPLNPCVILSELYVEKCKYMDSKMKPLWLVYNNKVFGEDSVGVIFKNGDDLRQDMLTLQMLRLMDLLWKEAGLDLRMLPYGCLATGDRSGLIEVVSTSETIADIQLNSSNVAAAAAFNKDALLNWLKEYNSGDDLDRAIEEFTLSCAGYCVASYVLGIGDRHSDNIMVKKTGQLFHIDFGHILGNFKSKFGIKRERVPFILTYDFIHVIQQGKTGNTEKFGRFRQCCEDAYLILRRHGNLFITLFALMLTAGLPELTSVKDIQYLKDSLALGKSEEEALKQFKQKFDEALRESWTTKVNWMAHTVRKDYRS
Protocol: as §1, §2, §3, §4, §5, §6, §7

mTOR = target: T3, mTOR (Mus musculus, UniProt Q9JLN9); experiment: Cellular assay mTOR (phospho-T389 S6K1 SureFire in TSC1-/- MEF cells); format: cell-based
T3 construct: endogenous in cells; host or cells: TSC1-/- MEF (mouse embryo fibroblasts)
Source text: A cell based assay (384-well format) was developed for determination of compound effects on cellular mTOR kinase activity in MEF (mouse embryo fibroblasts) cells derived from mice lacking TSC1 (Tuberosclerosis Complex1) a potent suppressor of mTOR kinase activity. Due to lack of TSC1 the mTOR kinase is constitutively activated resulting in permanent phosphorylation of Thr 389 of S6 kinase 1 (S6K1) which is one of the downstream targets of mTOR.
Using a SureFire Kit that enables to determine the phosphorylation of Thr389 on the S6K1 an assay was developed, validated and implemented in the Alpha-Screen format that allows the quantitative determination of phospho-T389 of S6K1 in cell lysates. […] These were in agreement with those values obtained with the biochemical mTOR ATP-binding assay enabling a quantitative comparison of potency of mTOR inhibitors.
TSC1−/− MEFs cells (Kwiatkowski, D. J., Zhang, H., Bandura, J. L., Heiberger, K. M., Glogauer, M., el-Hashemite, N., and Onda, H. (2002) Hum. Mol. Genet. 11, 525-534) were cultured in DMEM high glucose medium supplemented with 10% FBS (Invitrogen), 2 mM Glutamine and 1% (w/v) Penicillin/Streptomycin at 37° C., 5% CO2.
The SureFire kit for determination of P70S6kinase phosphorylation was purchased from Perkin Elmer (p70S6K p-T389, #TGR70S50K) and the assay was performed according to the instructions of the supplier and according to the generic method for SureFire assays. Shortly, 5 μL cell lysate per well were transferred to 384-well white proxy-plates (for luminescent readout) and mixed with […] and […] (final volume: 12 μL). After 3 h incubation in the dark at RT luminescence was read with the Envision Reader (Perkin Elmer). Untreated cells were used as control (high control) and cells treated with 3 μM BEZ235 were used as low control. The assay window between the signals obtained for the high and the low controls were defined as 100% and compound effects were expressed as percent inhibition. IC50 values were calculated from the dose response curves by graphical extrapolation.

[1] = biochemical, 1 μM ATP, mean of n measurements
[2] = TSC1-/- MEF cells, read-out: mTOR S6K(T389)_TSC1ko/ IC50
[3] = a different, separate measurement, read-out: PI3Ka IC50, different, separate measurement (footnote)
[4] = biochemical, 1 μM ATP, mean of n measurements, read-out: PI3Ka/ IC50
[5] = second value / 3 of the 4 values / 3 of the 5 values as per footnote, read-out: mTOR S6K(T389)_TSC1ko IC50, further individual values (footnotes)

T1 sequence (P42336 with tags, fused parts or gaps limits assumed): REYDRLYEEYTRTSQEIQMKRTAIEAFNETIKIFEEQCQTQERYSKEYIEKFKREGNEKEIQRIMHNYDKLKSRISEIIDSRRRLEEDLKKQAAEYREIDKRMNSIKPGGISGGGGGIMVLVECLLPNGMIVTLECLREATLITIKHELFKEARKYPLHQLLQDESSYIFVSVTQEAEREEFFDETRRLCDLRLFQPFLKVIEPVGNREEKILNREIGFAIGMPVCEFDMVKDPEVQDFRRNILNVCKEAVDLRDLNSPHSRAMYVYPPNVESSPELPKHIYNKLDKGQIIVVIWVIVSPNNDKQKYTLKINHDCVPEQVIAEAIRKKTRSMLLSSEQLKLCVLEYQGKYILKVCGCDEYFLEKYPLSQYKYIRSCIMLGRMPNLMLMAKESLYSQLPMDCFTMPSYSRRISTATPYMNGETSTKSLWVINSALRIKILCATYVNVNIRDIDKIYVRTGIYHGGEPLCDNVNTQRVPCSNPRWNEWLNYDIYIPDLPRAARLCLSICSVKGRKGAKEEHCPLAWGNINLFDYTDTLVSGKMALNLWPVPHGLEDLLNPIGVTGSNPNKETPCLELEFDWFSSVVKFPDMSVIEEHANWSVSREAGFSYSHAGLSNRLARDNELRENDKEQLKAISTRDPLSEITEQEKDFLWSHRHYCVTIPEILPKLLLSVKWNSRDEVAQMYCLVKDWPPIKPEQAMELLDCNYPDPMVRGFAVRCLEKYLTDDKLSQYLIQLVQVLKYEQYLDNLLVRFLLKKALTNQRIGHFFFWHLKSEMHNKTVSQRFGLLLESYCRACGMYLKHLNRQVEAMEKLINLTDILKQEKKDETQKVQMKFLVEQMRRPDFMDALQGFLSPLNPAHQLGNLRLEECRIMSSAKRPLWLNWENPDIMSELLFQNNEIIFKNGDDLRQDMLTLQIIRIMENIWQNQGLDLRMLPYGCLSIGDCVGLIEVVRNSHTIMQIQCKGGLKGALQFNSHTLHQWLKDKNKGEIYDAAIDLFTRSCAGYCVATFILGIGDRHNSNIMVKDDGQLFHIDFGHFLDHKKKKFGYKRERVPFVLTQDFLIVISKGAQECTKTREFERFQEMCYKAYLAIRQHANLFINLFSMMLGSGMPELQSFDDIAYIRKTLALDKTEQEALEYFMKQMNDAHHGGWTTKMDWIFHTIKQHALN

Which “PI3Ka/ IC50” value (human PI3Kα; [1]) does the source give for `[2H]C1([2H])OC([2H])([2H])C([2H])([2H])N(c2nc(-c3cnc(N)nc3C(F)(F)F)cc(N3C(=O)OC[C@@H]3C)n2)C1([2H])[2H]` [Example 17, (S)-3-(2′-amino-2-D8-morpholino-4′-(trifluoromethyl)-[4,5′-bipyrimidin]-6-yl)-4-methyloxazolidin-2-one] here?
Its value is 0.017 umol I-1.

What about the IC50 (human PI3Kβ) of the same compound?
Its IC50 is 7 nM.

What about the IC50 (mTOR; [2]) of the same compound?
The IC50 was 867 nM.

Which results are given for `C[C@H](O)CC1OC(=O)N(c2cc(-c3cnc(N)nc3C(F)(F)F)nc(N3CCOCC3)n2)[C@H]1C` (single isomer, unassigned) [Example 25]?
IC50 (human PI3Kα; [3]): < 3 nM; IC50 (human PI3Kα; [4]): 5 nM; IC50 (human PI3Kβ): 11 nM; IC50 (mTOR; [2]): 1830 nM

Which “PI3Ka/ IC50” value (human PI3Kα; [1]) does the source give for `Nc1ncc(-c2cc(N3C[C@@H](CO)OC3=O)nc(N3CCOCC3)n2)c(C(F)(F)F)n1` [Example 14, (S)-3-(2′-Amino-2-morpholin-4-yl-4′-trifluoromethyl-[4,5′]bipyrimidinyl-6-yl)-5-hydroxymethyl-oxazolidin-2-one] here?
Its value is 0.057 umol I-1.

And the IC50 (human PI3Kβ)?
The IC50 was 18 nM.

And the IC50 (mTOR; [2])?
The IC50 was greater than 2270 nM.

With `Nc1ncc(-c2cc(N3C(=O)O[C@@H]4[C@@H](O)CC[C@@H]43)nc(N3CCOCC3)n2)c(C(F)(F)F)n1` (racemic) [Example 22, (3aR*,6R*,6aR*)-3-(2′-Amino-2-morpholino-4′-(trifluoromethyl)-[4,5′-bipyrimidin]-6-yl)-6-hydroxyhexahydro-2H-cyclopenta[d]oxazol-2-one] as the compound, how does the IC50 (human PI3Kα; [4]) read?
The IC50 was 6 nM.

And the IC50 (human PI3Kβ)?
The IC50 was 48 nM.

What about the IC50 (mTOR; [2]) of the same compound?
Its IC50 is 1390 nM.

What does the source list for `CC1(CO)COC(=O)N1c1cc(-c2cnc(N)nc2C(F)(F)F)nc(N2CCOCC2)n1` (racemic) [Example 3, 3-(2′-amino-2-morpholino-4′-(trifluoromethyl)-4,5′-bipyrimidin-6-yl)-4-(hydroxymethyl)-4-methyloxazolidin-2-one]?
PI3Ka/ IC50 (human PI3Kα; [1]): 0.021 umol I-1; IC50 (human PI3Kβ): 18 nM; IC50 (mTOR; [2]): 759 nM

How did the “PI3Ka/ IC50” value (human PI3Kα; [1]) turn out when `Nc1ncc(-c2cc(N3C(=O)O[C@H]4COC[C@H]43)nc(N3CCOCC3)n2)c(C(F)(F)F)n1` [Example 21, (3aR,6aR)-3-(2′-amino-2-morpholino-4′-(trifluoromethyl)-[4,5′-bipyrimidin]-6-yl)-tetrahydrofuro[3,4-d]oxazol-2(3H)-one] was run?
Its value is 0.019 umol I-1.

And the IC50 (human PI3Kβ)?
Its IC50 is 35 nM.

What about the IC50 (mTOR; [2]) of the same compound?
Its IC50 is 942 nM.

`C[C@H]1[C@@H](CO)OC(=O)N1c1cc(-c2cnc(N)nc2C(F)(F)F)nc(N2CCOCC2)n1` [Example 19, (4S,5S)-3-(2′-Amino-2-morpholin-4-yl-4′-trifluoromethyl-[4,5′]bipyrimidinyl-6-yl)-5-hydroxymethyl-4-methyl-oxazolidin-2-one] was tested. Which “PI3Ka/ IC50” value (human PI3Kα; [1]) did it give?
Its value is 0.006 umol I-1.

What about the IC50 (human PI3Kβ) of the same compound?
The IC50 was 5 nM.

And the IC50 (mTOR; [2])?
The IC50 was 423 nM.

Which “PI3Ka/ IC50” value (human PI3Kα; [1]) does the source give for `C[C@H]1OC(=O)N(c2cc(-c3cnc(N)nc3C(F)(F)F)nc(N3CCOC[C@@H]3C)n2)[C@H]1CO` [Example 10, (4S,5R)-3-[2′-Amino-2-((S)-3-methyl-morpholin-4-yl)-4′-trifluoromethyl-[4,5′]bipyrimidinyl-6-yl]-4-hydroxymethyl-5-methyl-oxazolidin-2-one] here?
Its value is 0.008 umol I-1.

What about the IC50 (human PI3Kβ) of the same compound?
Its IC50 is 38 nM.

And the IC50 (mTOR; [2])?
Its IC50 is 2020 nM.

And the IC50 (mTOR; [5])?
Its IC50 is greater than 2270 nM.

What does the source list for `Nc1ncc(-c2cc(N3CCOC3=O)nc(N3CCOCC3)n2)c(C(F)(F)F)n1` [Example 11, 3-(2′-Amino-2-morpholin-4-yl-4′-trifluoromethyl-[4,5′]bipyrimidinyl-6-yl)-oxazolidin-2-one, reference compound]?
PI3Ka/ IC50 (human PI3Kα; [1]): 0.038 umol I-1; IC50 (human PI3Kβ): 12 nM; IC50 (mTOR; [2]): 1410 nM; IC50 (mTOR; [5]): > 2270 nM

Which IC50 (human PI3Kα; [4]) does the source give for `Nc1ncc(-c2cc(N3C(=O)OC4C(O)CCC43)nc(N3CCOCC3)n2)c(C(F)(F)F)n1` (single isomer, unassigned) [Example 22B] here?
The IC50 was 26 nM.

What about the IC50 (human PI3Kβ) of the same compound?
Its IC50 is 58 nM.

What about the IC50 (mTOR; [2]) of the same compound?
The IC50 was 2300 nM.

Which IC50 (human PI3Kα; [3]) does the source give for `C[C@H]1C(CC(C)(C)O)OC(=O)N1c1cc(-c2cnc(N)nc2C(F)(F)F)nc(N2CCOCC2)n1` (mixture of isomers) [Example 26, (4S,5R)- and (4S,5S)-3-(2′-amino-2-morpholino-4′-(trifluoromethyl)-[4,5′-bipyrimidin]-6-yl)-5-(2-hydroxy-2-methylpropyl)-4-methyloxazolidin-2-one] here?
The IC50 was less than 3 nM.

And the IC50 (human PI3Kα; [4])?
The IC50 was 5 nM.

What about the IC50 (human PI3Kβ) of the same compound?
Its IC50 is 124 nM.

What about the IC50 (mTOR; [2]) of the same compound?
The IC50 was 857 nM.

Which results are given for `C[C@@H](O)C[C@H]1OC(=O)N(c2cc(-c3cnc(N)nc3C(F)(F)F)nc(N3CCOCC3)n2)[C@H]1C` (single isomer, unassigned) [Example 24]?
IC50 (human PI3Kα; [4]): 5 nM; IC50 (human PI3Kβ): 16 nM; IC50 (mTOR; [2]): 1830 nM
